Data reported in ChEMBL document CHEMBL1201862, “PubChem BioAssay data set” (2004).
Active and inactive are the calls of the source. Rule as the data show it, for most assays here: actives have a measured EC50 and inactives only a lower limit.

Key:
[1] = viability of uninfected HEp-2 cells – cell-based, HTS, cytotoxicity control for RSV inhibitor project, dose response (AID 2410); type: functional; conditions: human respiratory syncytial virus
[2] = target: T1, Replicative DNA helicase DnaB (Mycobacterium tuberculosis, UniProt P9WMR3); experiment: DnaB intein splicing inhibitors, dose response, biochemical, cell-free fluorescence (AID 449749); type: functional
T1 sequence (P9WMR3 whole entry): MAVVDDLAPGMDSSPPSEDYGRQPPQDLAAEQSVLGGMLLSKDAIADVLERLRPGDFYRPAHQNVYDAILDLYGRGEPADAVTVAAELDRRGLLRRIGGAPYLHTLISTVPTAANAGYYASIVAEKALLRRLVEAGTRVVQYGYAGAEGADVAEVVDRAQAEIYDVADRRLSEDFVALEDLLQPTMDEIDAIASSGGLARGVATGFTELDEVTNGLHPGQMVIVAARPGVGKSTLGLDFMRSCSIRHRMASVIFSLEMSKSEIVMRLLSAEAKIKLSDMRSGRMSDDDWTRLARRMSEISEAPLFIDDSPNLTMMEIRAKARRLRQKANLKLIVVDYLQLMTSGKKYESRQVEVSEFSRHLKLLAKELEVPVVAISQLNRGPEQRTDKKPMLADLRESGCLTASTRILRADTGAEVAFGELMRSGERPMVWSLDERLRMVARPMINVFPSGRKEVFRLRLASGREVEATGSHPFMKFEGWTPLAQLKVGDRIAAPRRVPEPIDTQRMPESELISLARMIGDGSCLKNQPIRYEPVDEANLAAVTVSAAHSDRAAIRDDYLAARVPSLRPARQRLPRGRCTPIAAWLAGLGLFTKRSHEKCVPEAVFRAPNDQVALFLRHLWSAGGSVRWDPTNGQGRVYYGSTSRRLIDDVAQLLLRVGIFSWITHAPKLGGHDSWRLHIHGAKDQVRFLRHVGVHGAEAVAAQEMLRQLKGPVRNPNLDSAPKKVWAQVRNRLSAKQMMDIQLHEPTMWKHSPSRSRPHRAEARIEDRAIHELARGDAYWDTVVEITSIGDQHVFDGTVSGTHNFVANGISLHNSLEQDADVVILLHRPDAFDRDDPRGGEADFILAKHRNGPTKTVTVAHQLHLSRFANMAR

Protein RecA = target: T2, Protein RecA (Mycobacterium tuberculosis, UniProt P9WHJ3); experiment: Fluorescence Cell-Free Homogeneous Dose Retest to Identify Inhibitors of RecA-Intein Splicing Activity. [Related pubchem assays (depositor defined):AID2097, AID2223, AID489010, AID492950]; type: functional
T2 sequence (P9WHJ3 whole entry): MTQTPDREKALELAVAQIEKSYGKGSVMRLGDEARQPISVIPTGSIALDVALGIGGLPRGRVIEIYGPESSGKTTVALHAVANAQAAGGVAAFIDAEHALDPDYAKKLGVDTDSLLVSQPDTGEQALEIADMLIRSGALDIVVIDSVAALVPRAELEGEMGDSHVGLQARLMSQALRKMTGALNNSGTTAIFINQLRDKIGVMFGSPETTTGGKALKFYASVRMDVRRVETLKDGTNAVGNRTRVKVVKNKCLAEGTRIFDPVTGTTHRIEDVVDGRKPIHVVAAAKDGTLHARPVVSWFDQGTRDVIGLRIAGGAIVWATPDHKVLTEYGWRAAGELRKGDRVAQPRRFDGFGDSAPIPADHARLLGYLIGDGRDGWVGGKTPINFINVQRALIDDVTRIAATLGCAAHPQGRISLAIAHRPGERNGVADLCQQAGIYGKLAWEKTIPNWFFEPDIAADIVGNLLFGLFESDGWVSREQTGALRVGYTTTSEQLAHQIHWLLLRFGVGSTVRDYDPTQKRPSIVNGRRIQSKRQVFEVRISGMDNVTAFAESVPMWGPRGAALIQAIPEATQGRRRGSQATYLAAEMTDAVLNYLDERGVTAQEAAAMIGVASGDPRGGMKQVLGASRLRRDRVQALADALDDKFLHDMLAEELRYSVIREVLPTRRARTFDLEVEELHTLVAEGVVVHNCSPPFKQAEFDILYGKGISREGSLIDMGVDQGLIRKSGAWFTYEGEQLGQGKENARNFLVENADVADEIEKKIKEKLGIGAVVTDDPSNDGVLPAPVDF

[3] = Luminescence Cell-Based Dose Confirmation HTS to Identify Inhibitors of Platelet Dense Granule Release. [Related pubchem assays: 1663 (Primary HTS), 1678 (Summary of Project)]; type: functional
[4] = target: Luciferin 4-monooxygenase (Photinus pyralis, UniProt P08659); experiment: inhibition of purified Photinus pyralis luciferase – biochemical, luminescence, dose response (AID 1891)
Chain of Luciferin 4-monooxygenase (P08659 whole entry): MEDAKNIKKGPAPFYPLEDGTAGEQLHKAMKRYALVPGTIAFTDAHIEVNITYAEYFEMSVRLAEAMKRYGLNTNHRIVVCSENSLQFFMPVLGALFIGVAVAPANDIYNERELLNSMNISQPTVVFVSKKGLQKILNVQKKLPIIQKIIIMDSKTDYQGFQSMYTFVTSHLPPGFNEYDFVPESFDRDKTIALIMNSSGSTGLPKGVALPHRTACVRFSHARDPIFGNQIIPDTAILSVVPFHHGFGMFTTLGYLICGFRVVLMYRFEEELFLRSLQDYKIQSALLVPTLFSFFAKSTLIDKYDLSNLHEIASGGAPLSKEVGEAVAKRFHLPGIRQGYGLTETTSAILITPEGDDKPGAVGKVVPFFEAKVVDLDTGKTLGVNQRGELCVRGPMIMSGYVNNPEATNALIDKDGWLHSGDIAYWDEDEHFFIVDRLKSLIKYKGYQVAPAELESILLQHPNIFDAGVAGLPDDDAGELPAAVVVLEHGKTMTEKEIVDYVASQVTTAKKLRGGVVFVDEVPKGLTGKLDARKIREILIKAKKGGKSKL

Streptococcus = experiment: GAS UMAA2166 growth inhibition – luminescence, BacTiterGlo, counter-screen for streptokinase expression inhibitor project, dose response (AID 1915); type: functional, organism-based;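 also: potency for reduction of bacterial viability or growth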
Streptokinase A = target: T3, Streptokinase A (Streptococcus pyogenes serotype M1, UniProt P10520); experiment: viability-normalized secreted streptokinase activity reduction – plasminogen activation absorbance, OD405, dose response (AID 1914); type: functional, Streptococcus pyogenes M1 GAS;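 also: secreted streptokinase activity via plasminogen activation per viability signal from cell pellet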
T3 sequence (P10520 whole entry): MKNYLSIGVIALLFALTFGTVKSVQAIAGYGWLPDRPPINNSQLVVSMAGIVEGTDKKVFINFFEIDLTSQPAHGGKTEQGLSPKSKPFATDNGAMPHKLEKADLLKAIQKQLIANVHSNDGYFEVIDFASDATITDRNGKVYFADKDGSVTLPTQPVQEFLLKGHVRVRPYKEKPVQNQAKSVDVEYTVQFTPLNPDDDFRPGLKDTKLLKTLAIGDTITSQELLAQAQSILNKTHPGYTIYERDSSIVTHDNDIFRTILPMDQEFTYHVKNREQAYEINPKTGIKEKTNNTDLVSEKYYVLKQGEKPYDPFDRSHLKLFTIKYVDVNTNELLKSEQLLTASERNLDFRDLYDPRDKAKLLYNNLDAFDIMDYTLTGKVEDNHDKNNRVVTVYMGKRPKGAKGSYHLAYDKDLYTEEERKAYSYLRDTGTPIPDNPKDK

[5] = test system: Streptococcus sp. 'group A'; experiment: Streptococcus pyogenes SK(-)GAS viability under kanamycin – luminescence, BacTiterGlo, confirmation, counter-screen for streptokinase expression inhibitor project, dose response (AID 1900); type: functional, organism-based
[6] = target: T4, Rac GTPase-activating protein 1 (Homo sapiens, UniProt Q9H0H5); experiment: blockers of MgcRacGAP-driven Rac1 GTP hydrolysis – biochemical, ADP Hunter fluorescence, primary and confirmatory, confirmation (AID 624330); type: functional
T4 sequence (Q9H0H5 whole entry): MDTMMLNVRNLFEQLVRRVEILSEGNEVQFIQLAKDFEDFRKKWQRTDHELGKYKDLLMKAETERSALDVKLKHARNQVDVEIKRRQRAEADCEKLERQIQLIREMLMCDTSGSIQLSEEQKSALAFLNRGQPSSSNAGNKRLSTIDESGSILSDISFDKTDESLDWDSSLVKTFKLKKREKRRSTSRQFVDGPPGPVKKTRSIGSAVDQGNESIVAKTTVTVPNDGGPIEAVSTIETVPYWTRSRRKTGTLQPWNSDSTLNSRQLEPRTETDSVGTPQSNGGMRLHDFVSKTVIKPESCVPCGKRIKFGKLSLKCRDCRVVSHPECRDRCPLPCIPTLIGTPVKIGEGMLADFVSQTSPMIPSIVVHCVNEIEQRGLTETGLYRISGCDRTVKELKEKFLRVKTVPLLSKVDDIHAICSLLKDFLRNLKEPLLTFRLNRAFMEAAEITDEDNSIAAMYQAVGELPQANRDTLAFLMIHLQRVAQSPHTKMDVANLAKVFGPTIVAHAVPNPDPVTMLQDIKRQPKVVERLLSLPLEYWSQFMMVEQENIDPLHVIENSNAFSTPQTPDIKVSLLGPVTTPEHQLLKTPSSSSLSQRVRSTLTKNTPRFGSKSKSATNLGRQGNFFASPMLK

Cytochrome P450 2D6 = Cytochrome P450 2D6 (Homo sapiens, UniProt P10635);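 also: CYP2D6 member of a cytochrome P450 panel assay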
Chain of Cytochrome P450 2D6 (P10635 whole entry): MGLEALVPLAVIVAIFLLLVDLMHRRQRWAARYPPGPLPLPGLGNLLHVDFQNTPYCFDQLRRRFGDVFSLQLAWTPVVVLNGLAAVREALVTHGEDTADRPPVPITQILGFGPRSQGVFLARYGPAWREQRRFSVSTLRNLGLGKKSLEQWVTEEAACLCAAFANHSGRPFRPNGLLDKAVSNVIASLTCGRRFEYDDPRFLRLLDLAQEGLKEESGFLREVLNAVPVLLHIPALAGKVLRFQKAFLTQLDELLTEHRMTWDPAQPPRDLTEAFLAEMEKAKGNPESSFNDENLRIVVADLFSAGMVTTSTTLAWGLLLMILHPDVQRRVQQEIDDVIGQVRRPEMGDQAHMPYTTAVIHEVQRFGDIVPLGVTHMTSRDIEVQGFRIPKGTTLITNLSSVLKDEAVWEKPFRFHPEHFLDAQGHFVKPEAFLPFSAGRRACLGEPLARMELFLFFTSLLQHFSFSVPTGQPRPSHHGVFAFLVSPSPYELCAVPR

[7] = Trypanosoma cruzi growth suppression in host cells – NIH3T3 host cells, beta-gal luminescence, confirmation (AID 2044); type: functional, cell-based;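 also: intracellular parasites grown in NIH/3T3 mouse fibroblasts as host cells; luminescent beta-galactosidase reporter signal from transgenic T. cruzi replicating inside host cells; inhibitors lower the luminescence signal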
[8] = NIH3T3 cell viability loss – ATP luminescence, mouse fibroblasts, counter-screen, dose response (AID 2010); type: functional, cell-based;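 also: cells exposed to compound for about 90 hours before reading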

| Compound | CC50 [1] | AC50 [2] | EC50 (Protein RecA) | EC50 [3] | EC50 [4] | other results |
| --- | --- | --- | --- | --- | --- | --- |
| CO/C(O)=C1/C(C)=NC2=C(C(=O)CCC2)C1c1cn(Cc2ccc(Br)cc2)nc1-c1ccccc1 (stereo not given) | 17.4 µM (active) |  |  |  |  |  |
| O=C(Oc1ccc(-c2nnco2)cc1)c1ccco1 |  | 17.6 µM (active) | 15.3 µM (active) |  |  |  |
| CC(=O)NC(c1ccc(Cl)cc1)c1c(O)ccc2ccc(O)cc12 (stereo not given) |  | > 120 µM (inactive) | 4.61 µM (active) |  |  |  |
| CCOC(=O)C1CCC2(CC1)C(C#N)=C(N)Oc1[nH]nc(C)c12 (stereo not given) |  | 53.1 µM (active) | > 380 µM (inactive) |  |  |  |
| CCOC(=O)c1sc(Nc2ccc(Br)cc2)nc1C | 27.5 µM (active) |  |  |  |  |  |
| COc1cc2c(C(=O)N3CCOCC3)c(CSc3ccccc3)n(C)c2cc1Br | 20.7 µM (active) |  |  |  |  |  |
| CCc1ccc(NS(=O)(=O)c2ccc3ncc(C(=O)N4CCc5ccccc54)c(O)c3c2)cc1 | > 50 µM (active) |  |  |  |  |  |
| O=C(COC(=O)c1[nH]nc2ccccc12)Nc1cccc(S(=O)(=O)N2CCOCC2)c1 |  |  |  | > 112 µM (not active) |  |  |
| O=C(c1ccc(S(=O)(=O)Nc2ccccc2)cc1)N1CCCCCCC1 |  |  |  | > 112 µM (not active) | > 112 µM (not active) |  |
| COc1ccc(CN2CCNC(=O)C2CC(=O)N(C)Cc2ccncn2)c(OC)c1 (stereo not given) |  | 89.1 µM (active) | 24.7 µM (active) |  |  |  |
| Brc1ccc(-c2nc(N/N=C/c3cccnc3)c3ccccc3n2)cc1 |  |  |  | 0.407 µM (active) | 0.248 µM (active) |  |
| CCCCCN1N=C(C)CC1=O |  | 6.18 µM (active) | 2.79 µM (active) |  |  |  |
| Cc1noc(O)c1N=Nc1ccc2[nH]c(O)nc2c1 | 22.4 µM (active) |  |  |  |  |  |
| O=C(CN1C(=O)S/C(=C\C=C\c2ccccc2)C1=O)Nc1ccccc1C(=O)O |  | 8.47 µM (active) | 10.8 µM (active) |  |  | EC50 (Streptococcus): 14.9 µM (active); EC50 (Streptokinase A): 4.37 µM (active); EC50 [5]: 5.14 µM (active) |
| C/C(=N/OC(=O)c1ccc(C)cc1)c1cccs1 |  |  |  | 5.14 µM (active) | 1.22 µM (active) |  |
| Cc1ccc(C(=O)Nc2ccc(C)c(S(=O)(=O)N3CCOCC3)c2)c(C)c1 |  |  |  | > 112 µM (not active) | > 112 µM (not active) |  |
| Cc1ccc(-n2nc3c(=O)n(CCCC(=O)NCc4ccccc4Cl)nc(C)c3c2C)cc1 | > 50 µM (active) |  |  |  |  |  |
| NC(=O)CSc1cn(Cc2cccc(F)c2)c2ccccc12 |  |  |  | > 112 µM (not active) | > 112 µM (not active) |  |
| COc1cc(/C=C(\C#N)C(=O)c2c[nH]c3ccccc23)cc(OC)c1O |  | 1.26 µM (active) | 1.18 µM (active) |  |  | IC50 [6]: 43.6 µM (active) |
| COc1ccc(/C=C2/C(=O)N(c3ccccc3)N=C2C)c(OC)c1 |  | 3.87 µM (active) | 2.64 µM (active) |  |  |  |
| COc1ccc(-c2nc(-c3cc([N+](=O)[O-])ccc3C)c(-c3ccccc3)[nH]2)cc1O | 15.1 µM (active) |  |  |  |  |  |
| N#CC(c1ccc(Cl)cc1)N1CCOCC1 (stereo not given) |  |  |  | > 112 µM (not active) | > 112 µM (not active) |  |
| COc1ccc(-c2nc(CSCC(=O)N3CCN(c4cccc(C)c4)C(C)C3)c(C)o2)cc1OC (stereo not given) |  |  |  | > 112 µM (not active) | > 112 µM (not active) |  |
| COc1ccc(C(C)NC(=O)c2ccccc2Cl)cc1OC (stereo not given) |  |  |  | > 112 µM (not active) | > 112 µM (not active) |  |
| COc1cc(C2C(C#N)=C(N)Oc3[nH]nc(C)c32)cc2c1OCO2 (stereo not given) |  | 2.11 µM (active) | 1.38 µM (active) |  |  |  |
| Cc1ccc(-c2c3c(nc4sc(C(N)=O)c(N)c24)CCC3)cc1 |  |  |  | > 112 µM (not active) | > 112 µM (not active) | AC50 (Cytochrome P450 2D6): 22.4 µM (inconclusive) |
| O=C(Nc1nnc(-c2cccnc2)s1)c1cccs1 |  |  |  | > 112 µM (not active) | 22.6 µM (active) |  |
| CN(CC(=O)Nc1ccc(Cl)c(C(F)(F)F)c1)C(=O)c1cc(-c2ccncc2)nc2ccccc12 | 20 µM (active) |  |  |  |  |  |
| Cc1cccc(C2c3[nH]c4ccccc4c3CCN2Cc2cccn2-c2ncccn2)c1 (stereo not given) | 20.4 µM (active) |  |  |  |  | EC50 [7]: 0.647 µM (active); EC50 [8]: 20.7 µM (active) |
